Experimental data published in ChEMBL document CHEMBL1155271, “Synthesis, crystal structures and antibacterial activity studies of aza-derivatives of phytoalexin from cotton plant--gossypol” (2009).
Values after ≈ are worked out from the molar mass of the structure shown. Active and inactive are the calls of the source. No cut-off for these calls is given here.

Experiments:
Type in all cases: functional
Staphylococcus aureus [1] = assay: Antimicrobial activity against Methicillin susceptible Staphylococcus aureus 213/7 by twofold dilution technique
Staphylococcus aureus [2] = assay: Antimicrobial activity against Methicillin susceptible Staphylococcus aureus 237/7 by twofold dilution technique
Staphylococcus aureus [3] = assay: Antimicrobial activity against Methicillin susceptible Staphylococcus aureus 238/7 by twofold dilution technique
Staphylococcus aureus [4] = assay: Antimicrobial activity against Methicillin susceptible Staphylococcus aureus 239/7 by twofold dilution technique
Staphylococcus aureus [5] = assay: Antimicrobial activity against Methicillin susceptible Staphylococcus aureus 242/7 by twofold dilution technique
Staphylococcus aureus [6] = assay: Antimicrobial activity against Methicillin susceptible Staphylococcus aureus 243/7 by twofold dilution technique
Staphylococcus aureus [7] = assay: Antimicrobial activity against methicillin-resistant Staphylococcus aureus 140/6 by twofold dilution technique
Staphylococcus aureus [8] = assay: Antimicrobial activity against methicillin-resistant Staphylococcus aureus 141/6 by twofold dilution technique
Staphylococcus aureus [9] = assay: Antimicrobial activity against methicillin-resistant Staphylococcus aureus 143/6 by twofold dilution technique
Staphylococcus aureus [10] = assay: Antimicrobial activity against methicillin-resistant Staphylococcus aureus 144/6 by twofold dilution technique
Staphylococcus aureus [11] = assay: Antimicrobial activity against methicillin-resistant Staphylococcus aureus 146/6 by twofold dilution technique
Staphylococcus aureus [12] = assay: Antimicrobial activity against methicillin-resistant Staphylococcus aureus 200/7 by twofold dilution technique
Staphylococcus aureus [13] = assay: Antimicrobial activity against methicillin-resistant Staphylococcus aureus 217/7 by twofold dilution technique
Staphylococcus aureus [14] = assay: Antimicrobial activity against methicillin-resistant Staphylococcus aureus 218/7 by twofold dilution technique
Staphylococcus aureus [15] = assay: Antimicrobial activity against methicillin-resistant Staphylococcus aureus 236/7 by twofold dilution technique
Staphylococcus aureus [16] = assay: Antimicrobial activity against Staphylococcus aureus NCTC 4163 at 400 ug after 18 hrs by disk diffusion method; settings: NCTC 4163, 18 h, read-out: DIZ
[17] = tested on: Staphylococcus epidermidis; assay: Antimicrobial activity against Staphylococcus epidermidis ATCC 12228 at 400 ug after 18 hrs by disk diffusion method; settings: ATCC 12228, 18 h, read-out: DIZ
Bacillus subtilis [18] = assay: Antimicrobial activity against Bacillus subtilis ATCC 6633 at 400 ug after 18 hrs by disk diffusion method; settings: ATCC 6633, 18 h, read-out: DIZ
Bacillus cereus [19] = assay: Antimicrobial activity against Bacillus cereus ATCC 11778 at 400 ug after 18 hrs by disk diffusion method; settings: ATCC 11778, 18 h, read-out: DIZ
Enterococcus hirae [20] = assay: Antimicrobial activity against Enterococcus hirae ATCC 10541 at 400 ug after 18 hrs by disk diffusion method
Micrococcus luteus [21] = assay: Antimicrobial activity against Micrococcus luteus ATCC 9341 at 400 ug after 18 hrs by disk diffusion method
Micrococcus luteus [22] = assay: Antimicrobial activity against Micrococcus luteus ATCC 10240 at 400 ug after 18 hrs by disk diffusion method; settings: ATCC 10240, 18 h, read-out: DIZ
Staphylococcus aureus [23] = assay: Antimicrobial activity against Staphylococcus aureus ATCC 25923 at 400 ug after 18 hrs by disk diffusion method; settings: ATCC 25923, 18 h, read-out: DIZ
Staphylococcus aureus [24] = assay: Antimicrobial activity against Staphylococcus aureus ATCC 6538 at 400 ug after 18 hrs by disk diffusion method; settings: ATCC 6538, 18 h, read-out: DIZ
Staphylococcus aureus [25] = assay: Antimicrobial activity against Staphylococcus aureus ATCC 29213 at 400 ug after 18 hrs by disk diffusion method; settings: ATCC 29213, 18 h, read-out: DIZ
Staphylococcus aureus [26] = assay: Antimicrobial activity against Staphylococcus aureus NCTC 4163 after 18 hrs by twofold dilution technique; settings: NCTC 4163, 18 h
Staphylococcus aureus [27] = assay: Antimicrobial activity against Staphylococcus aureus ATCC 25923 after 18 hrs by twofold dilution technique; settings: ATCC 25923, 18 h
Staphylococcus aureus [28] = assay: Antimicrobial activity against Staphylococcus aureus ATCC 6538 after 18 hrs by twofold dilution technique; settings: ATCC 6538, 18 h
Staphylococcus aureus [29] = assay: Antimicrobial activity against Staphylococcus aureus ATCC 29213 after 18 hrs by twofold dilution technique; settings: ATCC 29213, 18 h
[30] = tested on: Staphylococcus epidermidis; assay: Antimicrobial activity against Staphylococcus epidermidis ATCC 12228 by twofold dilution technique
Bacillus subtilis [31] = assay: Antimicrobial activity against Bacillus subtilis ATCC 6633 after 18 hrs by twofold dilution technique; settings: ATCC 6633, 18 h
Bacillus cereus [32] = assay: Antimicrobial activity against Bacillus cereus ATCC 11778 after 18 hrs by twofold dilution technique; settings: ATCC 11778, 18 h
Enterococcus hirae [33] = assay: Antimicrobial activity against Enterococcus hirae ATCC 10541 after 18 hrs by twofold dilution technique; settings: ATCC 10541, 18 h
Micrococcus luteus [34] = assay: Antimicrobial activity against Micrococcus luteus ATCC 9341 after 18 hrs by twofold dilution technique; settings: ATCC 9341, 18 h
Micrococcus luteus [35] = assay: Antimicrobial activity against Micrococcus luteus ATCC 10240 by twofold dilution technique
Staphylococcus aureus [36] = assay: Antimicrobial activity against methicillin-resistant Staphylococcus aureus 136/6 by twofold dilution technique
Staphylococcus aureus [37] = assay: Antimicrobial activity against Methicillin susceptible Staphylococcus aureus 206/7 by twofold dilution technique
Staphylococcus aureus [38] = assay: Antimicrobial activity against Methicillin susceptible Staphylococcus aureus 207/7 by twofold dilution technique
Staphylococcus aureus [39] = assay: Antimicrobial activity against Methicillin susceptible Staphylococcus aureus 208/7 by twofold dilution technique
Staphylococcus aureus [40] = assay: Antimicrobial activity against Methicillin susceptible Staphylococcus aureus 212/7 by twofold dilution technique

Compound | MIC (Staphylococcus aureus [1]) | MIC (Staphylococcus aureus [2]) | MIC (Staphylococcus aureus [3]) | MIC (Staphylococcus aureus [4]) | MIC (Staphylococcus aureus [5]) | MIC (Staphylococcus aureus [6]) | MIC (Staphylococcus aureus [7]) | MIC (Staphylococcus aureus [8]) | MIC (Staphylococcus aureus [9]) | MIC (Staphylococcus aureus [10]) | MIC (Staphylococcus aureus [11]) | MIC (Staphylococcus aureus [12]) | MIC (Staphylococcus aureus [13]) | MIC (Staphylococcus aureus [14]) | MIC (Staphylococcus aureus [15]) | zone of inhibition at 400 µg/disc [17] | zone of inhibition at 400 µg/disc (Bacillus subtilis [18]) | zone of inhibition at 400 µg/disc (Bacillus cereus [19]) | diameter of the inhibition zone (DIZ) (Enterococcus hirae [20]) | diameter of the inhibition zone (DIZ) (Micrococcus luteus [21]) | further results
Cc1cc2c(C(C)C)c(O)c(O)c(/C=N/N3CCN(CCO)CC3)c2c(O)c1-c1c(C)cc2c(C(C)C)c(O)c(O)c(/C=N/N3CCN(CCO)CC3)c2c1O | 50 µg/mL (≈ 64.7 µM) | 25 µg/mL (≈ 32.3 µM) | 25 µg/mL (≈ 32.3 µM) | 25 µg/mL (≈ 32.3 µM) | 12.5 µg/mL (≈ 16.2 µM) | 25 µg/mL (≈ 32.3 µM) | 50 µg/mL (≈ 64.7 µM) | 50 µg/mL (≈ 64.7 µM) | 50 µg/mL (≈ 64.7 µM) | 50 µg/mL (≈ 64.7 µM) | 50 µg/mL (≈ 64.7 µM) | 50 µg/mL (≈ 64.7 µM) | 50 µg/mL (≈ 64.7 µM) | 50 µg/mL (≈ 64.7 µM) | 25 µg/mL (≈ 32.3 µM) | 14 mm | 12 mm | 12 mm | inactive | inactive | zone of inhibition at 400 µg/disc (Staphylococcus aureus [16]): 13 mm; zone of inhibition at 400 µg/disc (Micrococcus luteus [22]): 15 mm; zone of inhibition at 400 µg/disc (Staphylococcus aureus [23]): 13 mm; zone of inhibition at 400 µg/disc (Staphylococcus aureus [24]): 12 mm; zone of inhibition at 400 µg/disc (Staphylococcus aureus [25]): 12 mm; MIC (Staphylococcus aureus [26]): 50 µg/mL (≈ 64.7 µM); MIC (Staphylococcus aureus [27]): 50 µg/mL (≈ 64.7 µM); MIC (Staphylococcus aureus [28]): 25 µg/mL (≈ 32.3 µM); MIC (Staphylococcus aureus [29]): 25 µg/mL (≈ 32.3 µM); MIC [30]: 200 µg/mL (≈ 259 µM); MIC (Bacillus subtilis [31]): 100 µg/mL (≈ 129 µM); MIC (Bacillus cereus [32]): 25 µg/mL (≈ 32.3 µM); MIC (Enterococcus hirae [33]): 50 µg/mL (≈ 64.7 µM); MIC (Micrococcus luteus [34]): 50 µg/mL (≈ 64.7 µM); MIC (Micrococcus luteus [35]): 50 µg/mL (≈ 64.7 µM); MIC (Staphylococcus aureus [36]): 50 µg/mL (≈ 64.7 µM); MIC (Staphylococcus aureus [37]): 25 µg/mL (≈ 32.3 µM); MIC (Staphylococcus aureus [38]): 50 µg/mL (≈ 64.7 µM); MIC (Staphylococcus aureus [39]): 50 µg/mL (≈ 64.7 µM); MIC (Staphylococcus aureus [40]): 50 µg/mL (≈ 64.7 µM)
Cc1cc2c(c(O)c1-c1c(C)cc3c(c1O)/C(=C/NCC1COCCOCCOCCOCCOCCO1)C(=O)C(O)=C3C(C)C)/C(=C/NCC1COCCOCCOCCOCCOCCO1)C(=O)C(O)=C2C(C)C (centres undefined) | 100 µg/mL (≈ 93.5 µM) | 100 µg/mL (≈ 93.5 µM) | 100 µg/mL (≈ 93.5 µM) | 100 µg/mL (≈ 93.5 µM) | 100 µg/mL (≈ 93.5 µM) | 200 µg/mL (≈ 187 µM) | 100 µg/mL (≈ 93.5 µM) | 100 µg/mL (≈ 93.5 µM) | 100 µg/mL (≈ 93.5 µM) | 100 µg/mL (≈ 93.5 µM) | 100 µg/mL (≈ 93.5 µM) | 200 µg/mL (≈ 187 µM) | 200 µg/mL (≈ 187 µM) | 100 µg/mL (≈ 93.5 µM) | 100 µg/mL (≈ 93.5 µM) | 12 mm | 11 mm | 11 mm | inactive | inactive | zone of inhibition at 400 µg/disc (Micrococcus luteus [22]): 14 mm; zone of inhibition at 400 µg/disc (Staphylococcus aureus [23]): 11 mm; zone of inhibition at 400 µg/disc (Staphylococcus aureus [24]): 11 mm; zone of inhibition at 400 µg/disc (Staphylococcus aureus [25]): 11 mm; MIC (Staphylococcus aureus [26]): 100 µg/mL (≈ 93.5 µM); MIC (Staphylococcus aureus [27]): 100 µg/mL (≈ 93.5 µM); MIC (Staphylococcus aureus [28]): 100 µg/mL (≈ 93.5 µM); MIC (Staphylococcus aureus [29]): 100 µg/mL (≈ 93.5 µM); MIC [30]: > 400 µg/mL; MIC (Bacillus subtilis [31]): 200 µg/mL (≈ 187 µM); MIC (Bacillus cereus [32]): 100 µg/mL (≈ 93.5 µM); MIC (Enterococcus hirae [33]): 100 µg/mL (≈ 93.5 µM); MIC (Micrococcus luteus [34]): 100 µg/mL (≈ 93.5 µM); MIC (Micrococcus luteus [35]): 100 µg/mL (≈ 93.5 µM); MIC (Staphylococcus aureus [36]): 100 µg/mL (≈ 93.5 µM); MIC (Staphylococcus aureus [37]): 100 µg/mL (≈ 93.5 µM); MIC (Staphylococcus aureus [38]): 200 µg/mL (≈ 187 µM); MIC (Staphylococcus aureus [39]): 200 µg/mL (≈ 187 µM); MIC (Staphylococcus aureus [40]): 100 µg/mL (≈ 93.5 µM)
